{
  "source": "patent US20020137030A1",
  "about": "“METHOD OF DETECTION OF NEOPLASTIC CELLS” (JOHN HOPKINS UNIVERSITY SCHOOL OF MEDICINE, priority 1995, published 2002)",
  "assay_type_in_all_cases": "cell-based, human",
  "key": {"p16 [1]": {"test_system": "p16", "assay": "Re-expression of p16 (RT-PCR) after 5-deoxyazacytidine in methylated lung and head and neck cancer cell lines", "experimental": "(§1) Total RNA was extracted from cell lines by the guanidium-isothiocyanate-phenol-chloroform method (Chomczynski, P. & Sacchi, N., Analyt. Biochem, 162:156-159, 1987). Total RNA […] or poly-A (0.5 mg) was reverse transcribed by using Superscript II RNaseH^− (Gibco-BRL) reverse transcriptase (200 units) in the presence of hexamers (Pharmacia) and dNTP (Gibco-BRL). The cDNA was then amplified by PCR using the forward primer for exon 1 and the reverse primer for exons 2 or 3 (Kamb, et al., Science 264:436-440, 1994; and Serrano, et al., Nature 366:704-707, 1993) of p16 yielding a 428 or […] fragment respectively, which was run on 1.5% agarose gel. As a control, the […] fragment of p53 was amplified simultaneously. All reactions were repeated at least once. p16 primer sequence were as follows:\n(§2) In the methylation studies, the cDNA was then amplified by PCR using the forward primer for exon 1 and the reverse primer for exons 2 or 3 of CDKN2/p16 yielding a 428 or […] fragment respectively, which was run on 1.5% agarose gel. As a control, the […] fragment of p53 (or β-actin) was amplified simultaneously. All reactions were repeated at least once.\n(§3) Cells were grown in RPMI 1640 with 5-10% fetal calf serum depending on the growth requirements of each line. To assess re-expression, 5-deoxyazacytidine was supplemented to the medium at concentrations of […], and cells were harvested after three and five days.\n(§4) In order to test the hypothesis that 5′ CpG island methylation of p16 indeed blocks gene expression, five methylated cell lines (3 NSCLC and 2 HNSCC) were subjected for 3-5 days to different dosages (0.3-1 mmol) of the demethylating agent 5-deoxyazacytidine."}, "5′ CpG island of p16": {"test_system": "5′ CpG island of p16", "assay": "Southern blot of 5′ CpG island methylation of p16 after 5-deoxyazacytidine", "experimental": "Southern blots were performed as described (de Bustros, et al., Proc. Natl. Acad. Sci. U.S.A., 85:5693-5697, 1988). Briefly, […] of genomic DNA were digested with of EcoRI (10 U/mg) alone or in combination with the methylation-sensitive enzymes SmaI, EagI or SacII (15 U/mg each) for 16 h as specified by the manufacturers (Gibco-BRL and New England Biolabs), run on a 1% agarose gel, transferred to a Zeta-Probe GT nylon membrane (Bio-Rad), and probed with 25 ng of the 0.35 kb and 0.5 kb PCR products of exons 1 and 2 of p16 after random primer labelling (Feinberg, A. P. & Vogelstein, B. A, Annal. Biochem. 137:266-267, 1984). The primer sequences for the PE1 probe are as follows: sense 5′ GAAGAAAGAGGAGGGGCTG (SEQ ID NO:20), and antisense 5′ […] (SEQ ID NO:21), amplified with an annealing temperature of 60° C. by adding 3.6% formamide to the PCR buffer. The c-abl probe was provided by J.-P. Issa. The blots were then exposed in a phosphorimager (MolecularDynamics). All cases with a partial methylation pattern were repeated to exclude imcomplete enzymatic activity.\nas §3, §4"}, "p16 [2]": {"test_system": "p16", "assay": "Re-expression of p16 mRNA (RT-PCR) after 5-deoxyazacytidine in colon cancer cell lines RKO and SW480", "conditions": "3 days", "experimental": "as §1\nas §2, with “once. […]” for “once.”\nIn contrast, normal breast and 3 of 4 tested colon mucosa samples had readily detectable p16 message. […]"}, "cancer cell lines": {"test_system": "cancer cell lines", "assay": "Effects on cell growth, morphology and viability of cancer cell lines", "conditions": "non-specific; also seen in lines with homozygous deletions of p16, independent of methylation status", "experimental": "as §3\nHowever, these effects were non-specific and observed in cell lines with homozygous deletions of p16, and with retention of p16 alleles independent of methylation status. Therefore, we cannot attribute these non-specific effects to re-expression of p16, since other genes might also be affected by azacytidine."}},
  "note": "“Also recorded” adds a separate entry of the source.",
  "data": [
    {"smiles": "Nc1ncn([C@H]2C[C@H](O)[C@@H](CO)O2)c(=O)n1", "note": "[5-deoxyazacytidine]", "values": [
      {"measurement": "re-expression of p16 message by RT-PCR", "setting": "p16 [1]; five methylated cell lines (3 NSCLC and 2 HNSCC), 0.3-1 mmol, 3-5 days, each dose and time tested", "result": "re-expressed the message of p16"},
      {"measurement": "re-expression of p16 (FIG. 5b)", "setting": "p16 [1]; methylated HNSCC cell lines (lanes 4 and 6)", "result": "re-express p16"},
      {"measurement": "reexpression of p16 message on reversal of methylation", "setting": "p16 [1]; methylated cell lines, summary statement", "result": "reexpression of p16 message"},
      {"measurement": "re-expression of p16, 428 bp RT-PCR product (FIG. 5d)", "setting": "p16 [1]; transcriptionally silenced lines U1752 and H157, all doses and times", "result": "re-express p16"},
      {"measurement": "demethylation of p16 5′ CpG island, EcoRI and SmaI Southern (FIG. 5c)", "setting": "5′ CpG island of p16; line H157", "result": "Partial demethylation"},
      {"measurement": "demethylation of p16 5′ CpG island, EcoRI and SmaI Southern (FIG. 5c)", "setting": "5′ CpG island of p16; line H 1752, 1 and 0.5 mmol, 3 days and 5 days, all dosages and time points", "result": "demethylation was seen"},
      {"measurement": "demethylation of the monitored CpG sites", "setting": "5′ CpG island of p16; methylated cell lines, associated with reversal of the transcriptional block of p16", "result": "partial demethylation"},
      {"measurement": "p16 mRNA by RT-PCR after treatment", "setting": "p16 [2]", "result": "p16 gene mRNA was seen; also recorded: detectable p16 mRNA"},
      {"measurement": "effects on cell growth, morphology, and viability", "setting": "cancer cell lines", "result": "profound effects"}
    ]}
  ]
}
